In general, LD50 refers to the dose at which mortality reaches 50%. Read a high LD50 as a less toxic substance.

Series [1] addresses T1, aldose reductase from rat lens (Rattus norvegicus, UniProt P07943).
T1 construct: the supernatant was prepared as the crude enzyme solution; from tissue; host or cells: lens of male Wistar rats, 10,000 g supernatant of homogenate (crude enzyme)
Kind of series: Aldose reductase inhibiting activity. The class given is biochemical. The conditions noted are these: DL-glyceraldehyde substrate, Table 2, read-out: IC50 (50% inhibition concentration in M). As to the method:
Wistar male rats were sacrificed by decapitation and the lenses were taken out to be homogenized with a 0.1M phosphate buffer [pH 6.8, containing 1 mM of mercaptoethanol and 1 mM of nicotinamide-adenine dinucleotide phosphate (NADP)]. The homogenate was then centrifuged at 10,000 g for 15 minutes and the supernatant was prepared as the crude enzyme solution.

The nature of series [2]: Acute toxicity test in mice (oral). Particulars: mouse, in vivo, po. As to the method:
(§1) Acute toxicity test in mice was carried out on the benzofuran derivatives of the compound Nos. 3, 5, 9, 21, 23, 26, 29 and 34.

Series [3] deals with mice. Kind of series: Acute toxicity test in mice (oral). The conditions noted are these: mice, oral; for death up to the dose of 3 g/kg body weight: up to 3 g/kg. On the procedure: as §1
Series [4] has as its system aggregation of the washed rabbit platelet by thrombin. Kind of series: Platelet aggregation inhibiting activity (washed rabbit platelet, thrombin). The class given is cell-based. Particulars: for pIC50: Oryctolagus cuniculus, Platelet; for platelet aggregation inhibiting activity relative to Persantin: compared with Persantin (dipyridamole). On the procedure:
Blood samples were collected from the auricular blood vessel of rabbits (white local breed), and washed platelets were prepared therefrom by the method of Baenziger et al. (N. L. Baenziger and P. W. Majerus, Methods Enzymol., 31, 149 to 155 (1974). The platelets were suspended in a 15 mM Tris-hydrochloric acid buffer with a final concentration of 6×10^8 cells/ml (Tris: tris(hydroxymethyl)aminomethane). Each test compound of the compound Nos. 5, 8, 9, 11, 23, 29, 30 and 33 and Persantin® was added thereto and incubation was carried out at 37° C. for 2 minutes. Then the platelets were stimulated by addition of thrombin (0.2 unit/ml of final concentration; made by Mochida Pharmaceutical Co.) and the aggregation inhibiting activity was estimated by the observation of the aggregation reaction using an aggregometer (made by Briston Co.).
The results are shown in Table 3 in terms of IC50 (50% inhibiton concentration in M).

In series [5] the test system is cyclooxygenase. Kind of series: Cyclooxygenase inhibition: malondialdehyde production from arachidonic acid, 9000 G supernatant of lung homogenate from guinea pig. It counts as biochemical. The conditions noted are these: guinea pig lung 9000 G supernatant, compared with aspirin. As to the method:
Lung from guinea pig was washed with physiological saline and homogenized in 0.1M Tris-hydrochloric acid buffer to prepare a supernatant by cooled centrifugation (9000 G).
The inhibiting activity against cyclooxygenase was measured by using the 9000 G supernatant as a source of cyclooxygenase in the presence of 1 mM epinephiline.

Series [6] relates to production of malondialdehyde from arachidonic acid by rabbit platelets. Kind of series: Arachidonic acid metabolism inhibiting activity: production of malondialdehyde from arachidonic acid by rabbit platelets. It counts as cell-based. The conditions noted are these: Oryctolagus cuniculus, Platelet, arachidonic acid 0.2 mM, read-out: concentration showing 50% inhibition against the production of malondialdehyde from arachidonic acid. On the procedure:
Washed rabbit platelets prepared as in the platelet aggregation inhibiting activity test were suspended in 15 mM Tris-hydrochloric acid buffer with a final concentration of 1×10^8 cell/ml, to which each test compound of the compound Nos. 8, 13, 14, 19, 20, 23, 29, 30 and 33 were added and the resultant was preincubated at 37° C. for five minutes. Then arachidonic acid (a final concentration: 0.2 mM, made by Sigma Chemical Co.) was added thereto and the mixture was preincubated for 1 minute. An amount of the produced malondialdehyde was measured according to the thiobarbiturates method (Ed. Aoki and Shibata, Ketsuekigaku Kenkyukensaho, P 441 to 447).

[7] abbreviates: range for nine compounds, read-out: concentration showing 50% inhibition against the aggregation of the washed rabbit platelet by thrombin.
[8] abbreviates: washed rabbit platelets, thrombin 0.2 unit/ml, 37° C., Table 3, read-out: IC50 (50% inhibition concentration in M).

The structures appear in SMILES notation. pIC50: −log10 of the molar value. Where two headings read alike, the source gives them in different places.

Consider `CCCOc1ccc(S(=O)(=O)NCC(=O)O)c2cc(C(C)=O)oc12` [Compound 3, 2-acetyl-4-(N-carboxymethylsulfamoyl)-7-n-propoxybenzofuran], for which the pIC50 in series [1] is 7.22. In series [2], this compound showed an LD50 at 336 h of more than 3000 mg/kg. Besides, in series [3], the “death up to the dose of 3 g/kg body weight” value (“death up to the dose” for short) is reported as “no death”.

On to `CCCCCOc1ccc(S(=O)(=O)NCC(=O)O)c2cc(C(C)=O)oc12` [Compound 5, 2-acetyl-4-(N-carboxymethylsulfamoyl)-7-n-pentyloxybenzofuran], for which the pIC50 was 7.30 in series [1] and 3.70 to 4.70 in series [4] (setting [7]). In addition, in series [4], the “platelet aggregation inhibiting activity relative to Persantin” value was “equivalent to or more than”. The compound further displayed an LD50 at 336 h in series [2] of more than 3000 mg/kg. In addition, in series [3], the “death up to the dose” value is reported as “no death”.

Regarding `CCCCOc1ccc(S(=O)(=O)N(C)CC(=O)O)c2cc(C(C)=O)oc12` [Compound 9, 2-acetyl-4-(N-methyl-N-carboxymethylsulfamoyl)-7-n-butoxybenzofuran], the pIC50 in series [1] was 6.00; in series [4] (setting [7]) it was 3.70 to 4.70; in series [4] (setting [8]), 3.22. Besides, the “platelet aggregation inhibiting activity relative to Persantin” value in series [4] was “equivalent to or more than”. Besides, the LD50 at 336 h in series [2] was more than 3000 mg/kg. Further, the “death up to the dose” value in series [3] was “no death”.

Take `CCc1oc2ccc([N+](=O)[O-])cc2c1S(=O)(=O)NCC(=O)O` [Compound 21, 2-ethyl-3-(N-carboxymethylsulfamoyl)-5-nitrobenzofuran]: in series [1], the pIC50 is 7.30. In series [2], the LD50 at 336 h is more than 3000 mg/kg. The “death up to the dose” value in series [3] is listed as “no death”.

In the case of `CC(=O)c1cc2c(S(=O)(=O)NCC(=O)O)ccc(OCc3ccc([N+](=O)[O-])cc3)c2o1` [Compound 23, 2-acetyl-4-(N-carboxymethylsulfamoyl)-7-p-nitrobenzyloxybenzofuran], in series [5], the “inhibition against malondialdehyde production relative to aspirin” value is recorded as “equivalent to or more than”. Further, the pIC50 in series [1] was 7.30; in series [6] it was 4.00 to 5.00; in series [4] (setting [7]), 3.70 to 4.70; in series [4] (setting [8]), 4.10. In addition, the “platelet aggregation inhibiting activity relative to Persantin” value in series [4] was “equivalent to or more than”. In series [2], this compound had an LD50 at 336 h of more than 2000 mg/kg. Further, the “death up to 2 g/kg body weight” value in series [3] is listed as “no death”.

As to `CC(=O)COc1ccc(S(=O)(=O)NCC(=O)O)c2cc(C(C)=O)oc12` [Compound 26, 2-acetyl-4-(N-carboxymethylsulfamoyl)-7-acetonyloxybenzofuran], the pIC50 in series [1] was 6.70. In series [2], this compound returned an LD50 at 336 h of more than 2000 mg/kg. The “death up to 2 g/kg body weight” value in series [3] is “no death”.

Take `CC(=O)c1cc2c(S(=O)(=O)NCC(=O)O)ccc(OCc3ccccc3)c2o1` [Compound 29, 2-acetyl-4-(N-carboxymethylsulfamoyl)-7-benzyloxybenzofuran]: in series [5], the “inhibition against malondialdehyde production relative to aspirin” value is on record as “equivalent to or more than”. The pIC50 was 7.30 in series [1], 4.00 to 5.00 in series [6], 3.70 to 4.70 in series [4] (setting [7]) and 4.46 in series [4] (setting [8]). The “platelet aggregation inhibiting activity relative to Persantin” value in series [4] is listed as “equivalent to or more than”. This compound returned a median lethal dose (LD50) at 336 h in series [2] of more than 2000 mg/kg. Moreover, the “death up to 2 g/kg body weight” value in series [3] is “no death”.

With `CC(=O)c1cc2c(S(=O)(=O)N(CC(=O)O)Cc3ccc(Cl)cc3)ccc(OCc3ccc(Cl)cc3)c2o1` [Compound 34, 2-acetyl-4-(N-p-chlorobenzyl-N-carboxymethylsulfamoyl)-7-p-chlorobenzyloxybenzofuran], the pIC50 in series [1] was 6.10. Besides, the LD50 at 336 h in series [2] is more than 2000 mg/kg. The “death up to 2 g/kg body weight” value in series [3] is “no death”.
